# Like-named read-outs stand apart in the source and are kept apart here.
# Tested on: HIV-1JR-FL
# Assay: Viral infection assay, recombinant HIV-1 pseudotyped with JR-FL Env (wild type and mutants), Cf2Th-CD4/CCR5 cells
# Assay type: cell-based
# Settings: for Fold change: mutant/wild-type IC50
# Text: HIV-1 Env mutants. Mutations were introduced into the plasmid expressing the fulllength HIV-1YU2 or HIV-1JR-FL Envs using the QuikChange II site-directed mutagenesis protocol or the QuikChange multi site-directed mutagenesis kit (Stratagene). The presence of the desired mutations was confirmed by DNA sequencing. All HIV-1 Env residues are numbered based on alignment with the HXBc2 prototypic sequence, according to current convention.
# Production of recombinant HIV-1 expressing luciferase. […] After 48 hours, the supernatant was collected, buffered with 50 mM Hepes pH 7.4 (final concentration) and centrifuged for 5 minutes at 750×g and 4° C. The virus-containing supernatant was used directly or frozen at −80° C.
# Viral infection assay. Each test compound was serially diluted in DMSO in a 96-well B&W isoplate (PerkinElmer, Boston, Mass.) using an HP D300 Digital Dispenser, to a final volume of 450 nl. DMSO was used as a control. Viruses pseudotyped with a specific Env were added to each well and incubated briefly at room temperature. Cf2Th-CD4/CCR5 cells were detached with StemPro Accutase Cell Dissociation Reagent (Invitrogen, cat #A11105-01), washed once, and 5000 cells were added to each well. […] Following incubation, the medium was aspirated and cells were lysed with 30 μl of Passive Lysis Buffer (Promega, cat #E1941). The activity of the firefly luciferase, which was used as a reporter protein in the system, was measured with a Centro LB 960 luminometer (Berthold Technologies, Oak Ridge, Tenn.). One hundred microliters of assay buffer (15 mM MgSO4, 15 mM KH2PO4/K2HPO4 pH 7.8, 1 mM ATP and 1 mM DTT) was injected to each well, followed by a 50 μl injection of 1 mM Dluciferin potassium salt (BD Pharmingen, San Jose, Calif.); luminescence was measured for 2 sec. Infection of PBMC was done as above, but 20,000-40,000 cells/well and viruses concentrated by ultracentrifugation were used. After four hours of incubation with viruses, the cells were centrifuged at 200×g for 6 minutes at 4° C., resuspended in 100 μl RPMI-PBMC medium and incubated at 37° C. for an additional 36-40 hours (total 40-44 hours). Supernatant was removed after centrifugation at 400×g for 5 minutes and cells were processed to detect luciferase activity, as described above.
smiles,measurement,setting,value
O=C(N/N=C/c1ccc(O)cc1)Nc1cccc2nsnc12 [Compound 18A],IC50,"Example 8 table, read-out: IC50 (JR-FL)",3.6 µM
same,Fold change,JR-FL Env D167A,1.5
same,IC50,"JR-FL Env D167A, read-out: IC50",5.3 ± 1.5 µM
same,Fold change,JR-FL Env E153A,0.9
same,IC50,"JR-FL Env E153A, read-out: IC50",3.1 ± 0.7 µM
same,Fold change,JR-FL Env E168K + N188A,0.7
same,Fold change,JR-FL Env I109W,0.4
same,IC50,"JR-FL Env I109W, read-out: IC50",1.6 ± 0.8 µM
same,Fold change,JR-FL Env I154A,4.8
same,IC50,"JR-FL Env I154A, read-out: IC50",17.1 ± 0.9 µM
same,Fold change,JR-FL Env I194A,0.5
same,IC50,"JR-FL Env I194A, read-out: IC50",1.8 ± 0.4 µM
same,Fold change,JR-FL Env I424A,4.5
same,IC50,"JR-FL Env I424A, read-out: IC50",16.2 ± 2 µM
same,Fold change,JR-FL Env K155A,0.6
same,IC50,"JR-FL Env K155A, read-out: IC50",2.1 ± 0.9 µM
same,Fold change,JR-FL Env K178A,0.4
same,IC50,"JR-FL Env K178A, read-out: IC50",1.6 ± 0.3 µM
same,Fold change,JR-FL Env L175A,2.1
same,IC50,"JR-FL Env L175A, read-out: IC50",7.7 ± 1.2 µM
same,Fold change,JR-FL Env L179G,1.8
same,IC50,"JR-FL Env L179G, read-out: IC50",6.5 ± 0.7 µM
same,Fold change,JR-FL Env L193A,5.0
same,IC50,"JR-FL Env L193A, read-out: IC50",18.1 ± 2 µM
same,Fold change,JR-FL Env M147A,1.3
same,IC50,"JR-FL Env M147A, read-out: IC50",4.8 ± 1.2 µM
same,Fold change,JR-FL Env M434A,5.0
same,IC50,"JR-FL Env M434A, read-out: IC50",17.9 ± 1.2 µM
same,Fold change,JR-FL Env N136A,0.5
same,IC50,"JR-FL Env N136A, read-out: IC50",1.8 ± 0.1 µM
same,Fold change,JR-FL Env N139A,0.5
same,IC50,"JR-FL Env N139A, read-out: IC50",1.9 ± 0.2 µM
same,Fold change,JR-FL Env N141A,0.5
same,IC50,"JR-FL Env N141A, read-out: IC50",1.7 ± 0.3 µM
same,Fold change,JR-FL Env N156A,5.2
same,IC50,"JR-FL Env N156A, read-out: IC50",18.7 ± 1.5 µM
same,Fold change,JR-FL Env N187A + N188A,0.7
same,Fold change,JR-FL Env N188A,1.2
same,IC50,"JR-FL Env N188A, read-out: IC50",4.2 ± 0.8 µM
same,Fold change,JR-FL Env Q114E,0.9
same,IC50,"JR-FL Env Q114E, read-out: IC50",3.4 ± 0.6 µM
same,Fold change,JR-FL Env Q422A,2.2
same,IC50,"JR-FL Env Q422A, read-out: IC50",7.8 ± 1.7 µM
same,Fold change,JR-FL Env R166A,0.8
same,IC50,"JR-FL Env R166A, read-out: IC50",2.9 ± 0.6 µM
same,Fold change,JR-FL Env T143A + S146A,0.7
same,Fold change,JR-FL Env T163A + S164A,0.8
same,Fold change,JR-FL Env V134A,0.8
same,IC50,"JR-FL Env V134A, read-out: IC50",2.8 ± 2.1 µM
same,Fold change,JR-FL Env V430S,0.2
same,IC50,"JR-FL Env V430S, read-out: IC50",0.7 ± 0.3 µM
same,Fold change,JR-FL Env W112A,0.8
same,IC50,"JR-FL Env W112A, read-out: IC50",2.8 ± 0.7 µM
same,Fold change,JR-FL Env W479A,0.2
same,IC50,"JR-FL Env W479A, read-out: IC50",0.8 ± 0.2 µM
same,Fold change,JR-FL Env Y173A,0.9
same,IC50,"JR-FL Env Y173A, read-out: IC50",3.1 ± 1.2 µM
same,Fold change,JR-FL Env Y177A,2.8
same,IC50,"JR-FL Env Y177A, read-out: IC50",10.2 ± 1 µM
same,Fold change,JR-FL Env Y435A,3.5
same,IC50,"JR-FL Env Y435A, read-out: IC50",12.7 ± 3.5 µM
same,IC50,"JR-FL Env double mutant E168K + N188A, read-out: IC50",2.4 ± 1.4 µM
same,IC50,"JR-FL Env double mutant N187A + N188A, read-out: IC50",2.5 ± 0.6 µM
same,IC50,"JR-FL Env double mutant T143A + S146A, read-out: IC50",2.4 ± 0.2 µM
same,IC50,"JR-FL Env double mutant T163A + S164A, read-out: IC50",2.7 ± 0.3 µM
same,Fold change,JR-FL Env wild type,1
same,IC50,"JR-FL Env wild type, read-out: IC50",3.6 µM
same,Therapeutic Index (TI),calculated from IC50 against JR-FL and A-MLV,15.9
same,effect of glycosidase inhibitor treatment of virions on 18A inhibition,virions produced in the presence of two glycosidase inhibitors,Neither treatment had a significant effect
